Laboratory results taken from patent US20240122179A1, “AUXINIC HERBICIDES AND METHODS OF USE THEREOF” (CORTEVA AGRISCIENCE LLC, priority 2021, published 2024).
Like-named read-outs stand apart in the source and are kept apart here.

Tests used:
Amaranthus rudis (AMATA) = experiment: Postemergence herbicide evaluation, percent reduction in plant size vs untreated control, 21 days after treatment; assay type: in vivo, Amaranthus rudis (tall water hemp); settings: Amaranthus tuberculatus, post-emergence, 504 h, AMATA, postemergence, read-out: Control/Injury; for pest or weed control at 140 g/ha: rate 140 g ae/ha; for pest or weed control at 280 g/ha: rate 280 g ae/ha
Method in brief: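 Greenhouse-grown tall waterhemp (25-28° C, 16 h light) at the 2-8 leaf stage, treated by track sprayer at 187 L/ha with compound at 140 or 280 g ae/ha in acetone/DMSO-based spray solution with crop oil and surfactant. 3-4 replicates per treatment, randomized complete block; plant size reduction versus untreated control measured 21 days after treatment.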

[1] = tested on: Conyza canadensis (L.) (ERICA); experiment: as above; assay type: in vivo, Conyza canadensis (L.) (Horseweed); settings: Erigeron canadensis, post-emergence, 504 h, ERICA, postemergence, read-out: Control/Injury; for pest or weed control at 140 g/ha: rate 140 g ae/ha; for pest or weed control at 280 g/ha: rate 280 g ae/ha
Method in brief: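 Horseshoe-weed (horseweed) seedlings at 2 to 8 leaf stage in greenhouse (25-28° C, 16 h light), sprayed postemergence at 140 or 280 g ae/ha in acetone/DMSO-based spray solution, 187 L/ha track-sprayer. Randomized complete block, 3-4 replicates; plant size measured 21 days after treatment as percent reduction vs untreated controls.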

Kochia scoparia (KCHSC) = experiment: as above; assay type: in vivo; settings: Bassia scoparia, post-emergence, 504 h, KCHSC, postemergence, 21 days after treatment, read-out: Control/Injury; for pest or weed control at 140 g/ha: rate 140 g ae/ha; for pest or weed control at 280 g/ha: rate 280 g ae/ha
Method in brief: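 Greenhouse-grown plants (25-28 °C, 16 h light) at the 2 to 8 leaf stage were track-sprayed postemergence at 140 or 280 g ae/ha in acetone/DMSO-based spray solution with crop oil and surfactant, at 187 L/ha, in 3-4 randomized replicates.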

[2] = tested on: Amaranthus palmeri (AMAPA); experiment: as above; assay type: in vivo, Amaranthus palmeri (Palmer amaranth); settings: post-emergence, 504 h, postemergence, read-out: Control/Injury; for pest or weed control at 140 g/ha: rate 140 g ae/ha; for pest or weed control at 280 g/ha: rate 280 g ae/ha
Method in brief: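 Greenhouse-grown Palmer amaranth (25 to 28° C, 16 h light) sprayed postemergence at the 2 to 8 leaf stage with 140 or 280 g ae/ha in acetone/DMSO-based solution containing crop oil concentrate, 187 L/ha by track sprayer. Three to four replicates; plant size measured 21 days after treatment as percent reduction versus untreated control.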

[3] = Volatility of compounds measured by thermogravimetric analysis (TGA), rate of weight loss; assay type: physicochemical; settings: estimates of volatility
Description: Briefly, the rate of weight loss measured in units of […]g/min can be used to determine vapor pressure as shown by the simplified equation: wherein, k is the intrinsic volatility and A is the surface area, Referring now to FIG. 2. A graph of weight loss as function of time for solid samples produces a linear curve; the slope of the curve is the rate of weight loss. When this method is used to measure the volatility of aqueous salt concentrates or liquid concentrates, the water or acetone present in the sample volatilizes before the sample of interest. The first linear loss region of the curve is the loss of water or acetone and the second linear region is characteristic of the sample of interest. In order to illustrate the difference in volatility between some of the compounds disclosed herein and the widely used herbicide dicamba, data from both the compounds and dicamba are presented Table 3 and in FIG. 1.

[4] = tested on: Ambrosia artemisiifolia (AMBEL); experiment: Postemergence herbicide evaluation, percent reduction in plant size vs untreated control, 21 days after treatment; assay type: in vivo, Ambrosia artemisiifolia (common ragweed); settings: post-emergence, 504 h, AMBEL, postemergence, read-out: Control/Injury; for pest or weed control at 140 g/ha: rate 140 g ae/ha; for pest or weed control at 280 g/ha: rate 280 g ae/ha
Method in brief: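 Greenhouse-grown plants (25–28 °C, 16 h light) were sprayed postemergence at the 2–8 leaf stage with 140 or 280 g ae/ha in acetone/DMSO-based spray solution with crop oil and surfactant, at 187 L/ha by track sprayer. There were 3–4 replicates. Plant size was measured 21 days after treatment versus untreated plants.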

Glycine max = experiment: whole plant or invertebrate; settings: Glycine max, post-emergence, 504 h, read-out: Control/Injury
Method in brief: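 Greenhouse soybean (25–28 °C, 16 h light) sprayed post-emergence at 2–8 leaf stage with 140 or 280 g ae/ha in acetone/DMSO-based spray solution with crop oil concentrate, 187 L/ha by track sprayer; 3–4 replicates, randomized blocks. Plant size reduction versus untreated control measured 21 days after treatment.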

[5] = percent reduction vs untreated, 21 days after treatment
[6] = percent reduction vs untreated control, 21 days after treatment
[7] = percent reduction vs untreated control
[8] = R-AMAPA, percent reduction vs untreated control, 21 days after treatment

`COc1c(Cl)ccc(Cl)c1C(=O)O/N=C(\N)c1ccc2ccccc2c1` [Compound A-138] showed a pest or weed control at 140 g/ha (Amaranthus rudis (AMATA)) of 65%, a pest or weed control at 280 g/ha (Amaranthus rudis (AMATA)) of 64% and a pest or weed control at 140 g/ha [1, 5] of 75%. For the same compound, the pest or weed control at 280 g/ha [1, 5] was 70%, the pest or weed control at 140 g/ha (Kochia scoparia (KCHSC); percent reduction vs untreated) was 91% and the pest or weed control at 280 g/ha (Kochia scoparia (KCHSC); percent reduction vs untreated) was 91%. The pest or weed control at 140 g/ha ([2]; AMAPA) was 73%, the pest or weed control at 280 g/ha ([2]; AMAPA) was 59% and the Volatility [3] was 0.008 ng/min. For the same compound, the pest or weed control at 140 g/ha [4] was 79% and the pest or weed control at 280 g/ha [4] was 76%.

`COc1c(Cl)ccc(Cl)c1C(=O)O/N=C(\SC)c1ccccc1` [Compound A-85] showed a plant injury at 140 g/ha (Glycine max) of 5%, a plant injury at 280 g/ha (Glycine max) of 7% and a pest or weed control at 140 g/ha (Amaranthus rudis (AMATA)) of 57%. For the same compound, the pest or weed control at 280 g/ha (Amaranthus rudis (AMATA)) was 73%, the pest or weed control at 140 g/ha [1, 6] was 37% and the pest or weed control at 280 g/ha [1, 6] was 68%. It also gave a pest or weed control at 140 g/ha (Kochia scoparia (KCHSC); [7]) of 95%, a pest or weed control at 280 g/ha (Kochia scoparia (KCHSC); [7]) of 97% and a pest or weed control at 140 g/ha [2, 8] of 68%. The pest or weed control at 280 g/ha [2, 8] was 72%, the Volatility [3] was 0.28 ng/min and the pest or weed control at 140 g/ha [4] was 67%. For the same compound, the pest or weed control at 280 g/ha [4] was 78%.

With `CCCC[C@H](CC)COC(=O)c1c(Cl)ccc(Cl)c1OC` [Compound A-137] the pest or weed control at 140 g/ha (Amaranthus rudis (AMATA)) was 1%, the pest or weed control at 280 g/ha (Amaranthus rudis (AMATA)) was 8% and the pest or weed control at 140 g/ha [1, 5] was 0%. The pest or weed control at 280 g/ha [1, 5] was 0%, the pest or weed control at 140 g/ha (Kochia scoparia (KCHSC); percent reduction vs untreated) was 6% and the pest or weed control at 280 g/ha (Kochia scoparia (KCHSC); percent reduction vs untreated) was 3%. The pest or weed control at 140 g/ha ([2]; AMAPA) was 15%, the pest or weed control at 280 g/ha ([2]; AMAPA) was 15% and the Volatility [3] was 3.42 ng/min. It also gave a pest or weed control at 140 g/ha [4] of 33% and a pest or weed control at 280 g/ha [4] of 36%.

In the case of `COc1c(Cl)ccc(Cl)c1C(=O)N(C)OC` [Compound A-129], the pest or weed control at 140 g/ha (Amaranthus rudis (AMATA)) is reported as 20%, the pest or weed control at 280 g/ha (Amaranthus rudis (AMATA)) is reported as 23% and the pest or weed control at 140 g/ha [1] is reported as 38%. For the same compound, the pest or weed control at 280 g/ha [1] was 0%, the pest or weed control at 140 g/ha (Kochia scoparia (KCHSC); percent reduction vs untreated) was 0% and the pest or weed control at 280 g/ha (Kochia scoparia (KCHSC); percent reduction vs untreated) was 5%. It also gave a pest or weed control at 140 g/ha ([2]; AMAPA) of 8%, a pest or weed control at 280 g/ha ([2]; AMAPA) of 20% and a Volatility [3] of 13.4 ng/min. For the same compound, the pest or weed control at 140 g/ha [4] was 10% and the pest or weed control at 280 g/ha [4] was 15%.

`COc1c(Cl)ccc(Cl)c1C(=O)Oc1cc2ccccc2n1C` [Compound A-117] gave a pest or weed control at 140 g/ha (Amaranthus rudis (AMATA)) of 85%, a pest or weed control at 280 g/ha (Amaranthus rudis (AMATA)) of 85% and a pest or weed control at 140 g/ha [1, 5] of 98%. It also gave a pest or weed control at 280 g/ha [1, 5] of 95%, a pest or weed control at 140 g/ha (Kochia scoparia (KCHSC); percent reduction vs untreated) of 80% and a pest or weed control at 280 g/ha (Kochia scoparia (KCHSC); percent reduction vs untreated) of 98%. For the same compound, the pest or weed control at 140 g/ha ([2]; AMAPA) was 83%, the pest or weed control at 280 g/ha ([2]; AMAPA) was 89% and the Volatility [3] was 0.04 ng/min. It also gave a pest or weed control at 140 g/ha [4] of 90% and a pest or weed control at 280 g/ha [4] of 97%.

Work on `COc1c(Cl)ccc(Cl)c1C(=O)Nc1ccnn1C` [Compound A-134] yielded a pest or weed control at 140 g/ha (Amaranthus rudis (AMATA)) of 15%, a pest or weed control at 280 g/ha (Amaranthus rudis (AMATA)) of 8% and a pest or weed control at 140 g/ha [1] of 5%. For the same compound, the pest or weed control at 280 g/ha [1, 5] was 10%, the pest or weed control at 140 g/ha (Kochia scoparia (KCHSC); percent reduction vs untreated) was 0% and the pest or weed control at 280 g/ha (Kochia scoparia (KCHSC); percent reduction vs untreated) was 0%. For the same compound, the pest or weed control at 140 g/ha ([2]; AMAPA) was 15%, the pest or weed control at 280 g/ha ([2]; AMAPA) was 15% and the Volatility [3] was 0.01 ng/min. The pest or weed control at 140 g/ha [4] was 33% and the pest or weed control at 280 g/ha [4] was 30%.

Compound `COc1c(Cl)ccc(Cl)c1C(=O)NOCc1ccccc1` [Compound A-98] has a pest or weed control at 140 g/ha (Amaranthus rudis (AMATA)) of 18%, a pest or weed control at 280 g/ha (Amaranthus rudis (AMATA)) of 13% and a pest or weed control at 140 g/ha [1] of 2%. The pest or weed control at 280 g/ha [1] was 3%, the pest or weed control at 140 g/ha (Kochia scoparia (KCHSC); percent reduction vs untreated) was 8% and the pest or weed control at 280 g/ha (Kochia scoparia (KCHSC); percent reduction vs untreated) was 0%. It also gave a pest or weed control at 140 g/ha ([2]; AMAPA) of 23%, a pest or weed control at 280 g/ha ([2]; AMAPA) of 20% and a Volatility [3] of 0.08 ng/min. For the same compound, the pest or weed control at 140 g/ha [4] was 20% and the pest or weed control at 280 g/ha [4] was 15%.

Work on `COc1c(Cl)ccc(Cl)c1C(=O)O/N=C/c1ccco1` [Compound A-88] yielded a plant injury at 140 g/ha (Glycine max) of 10%, a plant injury at 280 g/ha (Glycine max) of 3% and a pest or weed control at 140 g/ha (Amaranthus rudis (AMATA)) of 72%. It also gave a pest or weed control at 280 g/ha (Amaranthus rudis (AMATA)) of 80%, a pest or weed control at 140 g/ha [1, 6] of 75% and a pest or weed control at 280 g/ha [1, 6] of 94%. For the same compound, the pest or weed control at 140 g/ha (Kochia scoparia (KCHSC); [7]) was 87%, the pest or weed control at 280 g/ha (Kochia scoparia (KCHSC); [7]) was 94% and the pest or weed control at 140 g/ha [2, 8] was 67%. The pest or weed control at 280 g/ha [2, 8] was 68%, the Volatility [3] was 0.35 ng/min and the pest or weed control at 140 g/ha [4] was 70%. It also gave a pest or weed control at 280 g/ha [4] of 82%.

In the case of `COc1c(Cl)ccc(Cl)c1C(=O)O/N=C(/C)N` [Compound A-136], the pest or weed control at 140 g/ha (Amaranthus rudis (AMATA)) is reported as 68%, the pest or weed control at 280 g/ha (Amaranthus rudis (AMATA)) is reported as 74% and the pest or weed control at 140 g/ha [1, 5] is reported as 94%. The pest or weed control at 280 g/ha [1, 5] was 99%, the pest or weed control at 140 g/ha (Kochia scoparia (KCHSC); percent reduction vs untreated) was 76% and the pest or weed control at 280 g/ha (Kochia scoparia (KCHSC); percent reduction vs untreated) was 94%. For the same compound, the pest or weed control at 140 g/ha ([2]; AMAPA) was 85%, the pest or weed control at 280 g/ha ([2]; AMAPA) was 90% and the Volatility [3] was 0.086 ng/min. For the same compound, the pest or weed control at 140 g/ha [4] was 87% and the pest or weed control at 280 g/ha [4] was 96%.
